Experimental data: patent publication US6365616B1, “Methimazole derivatives and tautomeric cyclic thiones to treat autoimmune diseases” (Sentron Medical, Inc., priority 1998, dated 2002)

System: silencer complex with Fragment 140 (upstream silencer/enhancer) of the MHC Class I PD1 5′-flanking region
Assay: Gel shift (EMSA) with upstream 140 class I probe, extracts from treated FRTL-5 cells
Assay type: cell-based, rat
Conditions: 5H cells treated 48 hours
Experimental: FRTL-5 rat thyroid cells (Kohn, L. D., et al., U.S. Pat. No. 4,609,622 (1986); Ambesi-Impiombato E S., U.S. Pat. No. 4,608,341 (1986)) are grown as described below. […] Their doubling time was approximately 36±6 hours; and, after 6 days in medium with no TSH (5H) and 5.0% serum, […] TSH elevated iodide uptake 8-10 fold and thymidine incorporation>10 fold. Cells were diploid, between their 5th and 25th passage in most experiments, and were routinely grown in Coon's modified F12 medium supplemented with 5 % calf serum, 1 mmol/L nonessential amino acids (GIBCO) and a mixture of 6 hormones (6H medium): TSH (1×10^−10 M), insulin (10 μg/ml), hydrocortisone 0.4 ng/ml, human transferrin (5 μg/ml), somatostatin ([…]) and glycyl-L-histidyl-L-lysine acetate (10 ng/ml) (Kohn, L. D. et al., U.S. Pat. No. 4,609,622 (1986); Ambesi-Impiombato, E. S., U.S. Pat. No. 4,608,341 (1986)). They were passaged every 7-10 days and provided fresh media every 2 or 3 days. In individual experiments, cells were grown to near confluency in 6H medium then, in some experiments, were shifted to medium with no TSH (5H), to medium with neither TSH and or insulin (4H), or to medium with no TSH, no insulin and no hydrocortisone (3H) plus either 5% or 0.2% serum for 4-7 days before use.
Cells were grown in 6H medium with 5 % calf serum for 6-7 days to 70-80% confluence, then shifted to 5H medium with 5 % calf serum for 5 days. TSH (1×10^−10 M), gamma-interferon (100 U/ml), MMI (5 mM), and different concentrations of MMI derivatives or tautomeric cyclic thiones (0.0001 to 10 mM) were added as appropriate for […]. Cells were then harvested and extracts were made by a modification of a method of Dignam, J., et al. Methods in Enzymology, 101:582-598 (1983). In brief, cells were harvested by scraping after being washed twice with cold phosphate-buffer saline (PBS). Subsequently they were pelleted, washed in cold PBS and then pelleted again. The pellet was resuspended in Dignam buffer C (20 mM Hepes buffer at pH 7.9, 1.5 mM MgCl2, 0.42 M NaCl, 25% glycerol, 0.5 mM dithiotreitol (DTT), 0.5 mM phenylmethylsulfonylfluoride (PMSF), 1 […] pepstatin). The final NaCl concentration was adjusted on the basis of cell pellet volume to 0.42 M and cells were lysed by repeated cycles of freezing and thawing. Extracts were then centrifuged at 10,000×g at 4° C. for 20 min. The supernatant was recovered, aliquoted and stored at −70° C.
Binding reactions were performed in a volume of 20 μl for 30 min at room temperature. The typical reaction mixture contained 1.5 fmol of ^32P DNA, 3 μg of cell extracts, 1 to 3 μg of poly (dI-dC) in 10 mM Tris-Cl (pH 7.9), 1 mM MgCl2, 1 mM DTT, 1 mM ethylenediamine tetra acetic acid (EDTA), and 5 % glycerol. After incubation, reaction mixtures were subjected to electrophoresis in 4% polyacrylamide gels for 90-120 min at 160 V in 0.5× TBE (Sambrook, J., et al., Molecular Cloning: A Laboratory Manual, 2nd ed. Cold Spring Harbor Press, NY, 2: 11.23-11.44 (1989)), then dried and autoradiographed. Probes were labeled with [α32P] deoxy CTP by Klenow enzyme (In Vitro labeling kit, Amersham) following the manufacturer's instructions, or by [γ^32P] ATP using T4 polynucleotide kinase. Labeled probes were then purified either through G-50 columns (5 prime→3 Prime) or on an 8% polyacrylamide gel.
The effect of the addition of 5 mM MMI to cells for 48 hours prior to extract preparation from cells maintained in SH medium is shown in lane 1 of FIG. 2. The effect of the addition of 1 mM concentration of representative MMI derivatives to cells maintained in 5H medium for 48 hours prior to extract preparation is shown in lanes 3 to 8 in FIG. 2. The structures and names of the representative numbered compounds are in Table 1. The MMI or its derivatives decrease the silencer complex. The decrease can be quantitated by densitometry of autoradiograms or phosphoimaging on a Bas 1500 imager (for example). […]

SMILES	% inhibition of control silencer complex formation (10 μM) [%]	% inhibition of control silencer complex formation (100 μM) [%]	% inhibition of control silencer complex formation (1 mM) [%]	% inhibition of control silencer complex formation (5 mM)
Cn1ccn(C)c1=S [Compound 8, N-Methylmethimazole]	0	18 ± 18	70 ± 14	–
Cc1cnc(S)n1C [Compound 9, 5-Methylmethimazole]	0	0	15 ± 15	30 ± 20%
CSc1nccn1C [Compound 7, S-Methylmethimazole]	0	10 ± 13	50 ± 9	–
Cn1ccnc1S [Compound 1, 1-Methylimidazole-2-thiol]	0	0	20 ± 15	75 ± 12%
Cc1ccc2[nH]c(S)nc2c1 [Compound 6, 2-Mercapto-5-methylbenzimidazole]	0	0	20 ± 18	Insol
O=[N+]([O-])c1ccc2[nH]c(S)nc2c1 [Compound 5, 2-Mercapto-5-nitrobenzimidazole]	0	0	0	Insol
Sc1ncc[nH]1 [Compound 3, 2-Mercaptoimidazole]	0	0	0	0%
Sc1nc2ccccc2[nH]1 [Compound 4, 2-Mercaptobenzimidazole]	0	5	75 ± 10	Insol
Cn1c(-c2ccccc2)cnc1S [Compound 10, 5-Phenylmethimazole]	25	60 ± 10	85 ± 15	–
Cc1ncc([N+](=O)[O-])n1CCO [Compound 2, 2-Methyl-5-nitro-1-imidazole ethanol]	0	0	45 ± 19	86 ± 15%
